Test results taken from US20240116985A1, “STAPLED PEPTIDES AND METHODS THEREOF” (priority 2020, published 2024).
In brackets after ≈: the same amount, converted by molar mass. Several values for one entry are separate records, joined by “and”; a condition that tells them apart may be missing. Equal values may be shown once. Read-outs that look alike come from different tables or passages of the source.

Key:
[1] = target: T1, beta-catenin/TCF4 engagement (Homo sapiens, UniProt P35222); experiment: Nano-BRET target engagement assay (B-cat-Halo & TCF4-Luc in HEK293 cells); type: cell-based
T1 construct: expressed in transfected cells; host or cells: HEK293
T1 sequence (P35222 1-781): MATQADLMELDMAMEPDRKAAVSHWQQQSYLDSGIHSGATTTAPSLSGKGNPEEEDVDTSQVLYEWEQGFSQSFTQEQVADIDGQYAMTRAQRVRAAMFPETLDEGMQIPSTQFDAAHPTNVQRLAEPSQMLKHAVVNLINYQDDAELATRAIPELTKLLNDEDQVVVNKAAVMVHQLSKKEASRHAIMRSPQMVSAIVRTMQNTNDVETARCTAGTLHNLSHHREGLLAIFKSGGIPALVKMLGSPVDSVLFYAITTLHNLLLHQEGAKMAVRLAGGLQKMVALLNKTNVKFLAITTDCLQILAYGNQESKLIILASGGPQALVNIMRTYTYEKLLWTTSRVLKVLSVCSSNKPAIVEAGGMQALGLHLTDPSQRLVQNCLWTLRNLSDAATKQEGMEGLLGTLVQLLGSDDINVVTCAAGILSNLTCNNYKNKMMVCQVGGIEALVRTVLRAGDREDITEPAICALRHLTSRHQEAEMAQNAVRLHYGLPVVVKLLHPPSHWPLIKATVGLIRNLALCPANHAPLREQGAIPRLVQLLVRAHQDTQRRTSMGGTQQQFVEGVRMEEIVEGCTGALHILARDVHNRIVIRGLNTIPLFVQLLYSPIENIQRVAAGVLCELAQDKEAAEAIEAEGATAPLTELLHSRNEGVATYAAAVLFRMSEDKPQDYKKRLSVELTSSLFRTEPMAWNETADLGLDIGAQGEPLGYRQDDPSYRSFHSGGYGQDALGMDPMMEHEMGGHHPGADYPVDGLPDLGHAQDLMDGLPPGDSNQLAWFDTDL

[2] = Solubility in PBS; type: physicochemical
In short: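 Read-out is the HPLC peak area of the supernatant from ultracentrifuged PBS solution, scaled against a 50 μM peptide DMSO injection; value reported as [(PBS area)/(DMSO area)]*50 uM.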

[3] = target: T2, full-length beta-Catenin (Uniprot ID P35222) (Homo sapiens, UniProt P35222); experiment: Fluorescence polarization IC50 (beta-catenin / 5FAM-TCF4 10-53 competition); type: binding
T2 construct: 10 nM full-length beta-Catenin (Uniprot ID P35222)
T2 sequence (P35222 1-781): T1 sequence (P35222 1-781)

[4] = CHI Log D procedure; type: physicochemical; conditions: for CHI Log D: pH 7.4; for chromatographic logD: pH 7.4, CHI Log D
[5] = test system: TCF/LEF luciferase Reporter in DLD1 cells; experiment: TCF reporter assay (DLD1 TCF/LEF luciferase reporter, Bright-Glo); type: cell-based; conditions: for DLD1 TCF c2 BrightGlo % Inhibition: replicates
In short: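 Readouts: Bright-Glo luciferase for reporter signal and CellTiter-Glo for cell viability, with absolute IC50 derived. The reporter clone came from lentiviral TCF/LEF-luciferase transduction of DLD1 cells, seeded 5000 cells/well in RPMI with 4% FBS and exposed overnight to serially diluted compounds.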

[6] = absolute IC50, read-out: NanoBRET Abs IC50
[7] = fluorescence polarization, beta-catenin, read-out: FP EC50
[8] = absolute IC50, read-out: DLD1 reporter assay Abs IC50
[9] = read-out: DLD1 4% Abs IC50, DLD1 4%
[10] = fluorescence polarization, read-out: beta-Catenin FP IC50

Row | SMILES | IC50 [1, 6] | IC50 ([1]; read-out: NanoBRET Abs IC50) | Solubility [2] | IC50 ([3]; read-out: beta-Catenin FP IC50) | CHI Log D [4] | IC50 [5, 8] | IC50 [5, 9] | IC50 ([1]; read-out: NanoBRET IC50) | Solubility ([2]; Solubility (uM)) | chromatographic logD [4] | other results
1 | CC(=O)N1CCC[C@]12CC=CCCCC1(CCCC=CCCCCCC[C@@](C)(C(=O)N[C@@H](Cc3ccccc3Cl)C(=O)N[C@@H](Cc3csc4ccccc34)C(=O)N[C@@H](CCO)C(N)=O)NC(=O)[C@H](CO)NC(=O)[C@H](Cc3ccccc3)NC(=O)[C@H](C)NC(=O)[C@H](C)NC(=O)[C@H](CN(CC(=O)O)CC(F)(F)F)NC(=O)[C@H](CC(=O)O)NC1=O)NC(=O)[C@H](CC(C)(C)C)NC(=O)[C@H](CC(=O)O)NC2=O (single isomer, unassigned) [I-999, Ac-PL3-Asp-Npg-B5-Asp-TfeGA-Ala-Ala-Phe-Ser-S8-2C1F-BztA-Hse-NH2] | 26.3 µM | 26.3 µM | 30 µM (≈ 58.8 µg/mL) | 0.026 µM | 2.941 | 11.1 µM | 5.6 µM | – | – | – | IC50 [3, 7]: 0.026 µM; DLD1 TCF c2 BrightGlo % Inhibition ([5]; first dose = 20 uM (plate map), 20 µM): 63.2% and 71.4% and 68.9%; DLD1 TCF c2 BrightGlo % Inhibition ([5]; 0.625 µM): 7.7% and 8.8% and 6.4%; DLD1 TCF c2 BrightGlo % Inhibition ([5]; 1.25 µM): 1.7% and 8.0% and 4.0%; DLD1 TCF c2 BrightGlo % Inhibition ([5]; 2.5 µM): 14.3% and 11.9% and 4.4%; DLD1 TCF c2 BrightGlo % Inhibition ([5]; 10 µM): 42.0% and 49.2% and 49.7%; DLD1 TCF c2 BrightGlo % Inhibition ([5]; third dose = 5 uM (plate map), 5 µM): 18.2% and 32.5% and 23.9%
2 | CC(=O)N1CCC[C@]12CC=CCCCC1(CCCC=CCCCCCC[C@@](C)(C(=O)N[C@@H](Cc3ccccc3)C(=O)N[C@@H](Cc3csc4ccccc34)C(=O)N[C@@H](CCC(N)=O)C(N)=O)NC(=O)[C@H](CCC(N)=O)NC(=O)[C@H](Cc3ccccc3)NC(=O)[C@H](C)NC(=O)[C@H](C)NC(=O)[C@H](CCC(=O)O)NC(=O)[C@H](CC(=O)O)NC1=O)NC(=O)[C@H](CC(C)C)NC(=O)[C@H](CC(=O)O)NC2=O (stereo partly drawn) [I-505, Ac-PL3-Asp-Leu-B5-Asp-Glu-Ala-Ala-Phe-Gln-S8-Phe-BztA-Gln-NH2] | 4.9 µM | – | 50 µM (≈ 94.2 µg/mL) | – | 2.259 | – | – | 5.6 µM | – | – | IC50 ([1]; Abs IC50, read-out: NanoBRET Abs IC50): 4.9 µM; IC50 [3, 10]: 0.023 µM; IC50 ([3]; read-out: FP EC50): 0.023 µM; IC50 ([5]; Abs IC50, read-out: DLD1 reporter assay Abs IC50): 10.8 µM; IC50 ([5]; read-out: DLD1 4% Abs IC50, DLD1 4%, absolute IC50): 9.4 µM
3 | CC(=O)N1CCC[C@]12CC=CCCCC1(CCCC=CCCCOC(=O)N3CC[C@@](C(=O)N[C@@H](Cc4ccsc4)C(=O)N[C@@H](Cc4csc5ccccc45)C(=O)N[C@@H](CCC(N)=O)C(N)=O)(C3)NC(=O)[C@H](CCO)NC(=O)[C@H](Cc3ccccc3)NC(=O)[C@H](C)NC(=O)[C@H](C)NC(=O)[C@H](CC(=O)O)NC(=O)[C@H](CC(=O)O)NC1=O)NC(=O)[C@H](CC(C)(C)C)NC(=O)[C@H](CC(=O)O)NC2=O (stereo partly drawn) [I-803, Ac-PL3-Asp-Npg-B5-Asp-Asp-Ala-Ala-Phe-Hse-PyrS2-3Thi-BztA-Gln-NH2] | – | 9.6 µM | – | 0.005 µM | – | – | 9 µM | 9 µM | 40 µM (≈ 76.2 µg/mL) | 2.03 | –
4 | CC(=O)N1CCC[C@]12CC=CCCCC1(CCCC=CCCCOC(=O)N3CC[C@@](C(=O)N[C@@H](Cc4ccsc4)C(=O)N[C@@H](Cc4csc5ccccc45)C(=O)N[C@@H](CCC(N)=O)C(N)=O)(C3)NC(=O)[C@H](Cc3ccccc3)NC(=O)[C@H](Cc3ccccc3)NC(=O)[C@H](C)NC(=O)[C@H](C)NC(=O)[C@H](CC(=O)O)NC(=O)[C@H](CC(=O)O)NC1=O)NC(=O)[C@H](CC(C)(C)C)NC(=O)[C@H](CC(=O)O)NC2=O (stereo partly drawn) [I-807, Ac-PL3-Asp-Npg-B5-Asp-Asp-Ala-Ala-Phe-Phe-PyrS2-3Thi-BztA-Gln-NH2] | – | 3.2 µM | – | 0.005 µM | – | 3.4 µM | – | 5.3 µM | 24 µM (≈ 46.8 µg/mL) | 2.27 | –
5 | CC(=O)N1CCC[C@]12CC=CCCCC1(CCCC=CCCCOC(=O)N3CC[C@@](C(=O)N[C@@H](Cc4ccsc4)C(=O)N[C@@H](Cc4csc5ccccc45)C(=O)N[C@@H](CCC(N)=O)C(N)=O)(C3)NC(=O)[C@H]([C@@H](C)O)NC(=O)[C@H](Cc3ccccc3)NC(=O)[C@H](C)NC(=O)[C@H](C)NC(=O)[C@H](CC(=O)O)NC(=O)[C@H](CC(=O)O)NC1=O)NC(=O)[C@H](CC(C)(C)C)NC(=O)[C@H](CC(=O)O)NC2=O (stereo partly drawn) [I-809, Ac-PL3-Asp-Npg-B5-Asp-Asp-Ala-Ala-Phe-Thr-PyrS2-3Thi-BztA-Gln-NH2] | – | 6.1 µM | – | 0.005 µM | – | – | 11.3 µM | 11.7 µM | 36 µM (≈ 68.6 µg/mL) | 2.1 | –
6 | CC(=O)N1CCC[C@]12CC=CCCCC1(CCCC=CCCCOC(=O)N3CC[C@@](C(=O)N[C@@H](Cc4ccsc4)C(=O)N[C@@H](Cc4csc5ccccc45)C(=O)N[C@H](C(N)=O)[C@@H](C)O)(C3)NC(=O)[C@H](CC(N)=O)NC(=O)[C@H](Cc3ccccc3)NC(=O)[C@H](C)NC(=O)[C@H](C)NC(=O)[C@H](CC(=O)O)NC(=O)[C@H](CC(=O)O)NC1=O)NC(=O)[C@H](CC(C)(C)C)NC(=O)[C@H](CC(=O)O)NC2=O (stereo partly drawn) [I-814, Ac-PL3-Asp-Npg-B5-Asp-Asp-Ala-Ala-Phe-Asn-PyrS2-3Thi-BztA-Thr-NH2] | – | 18.9 µM | – | 0.007 µM | – | – | 16.5 µM | 12.7 µM | 47 µM (≈ 88.9 µg/mL) | 2.1 | –
7 | CCN(CC(=O)O)C[C@@H]1NC(=O)[C@H](CC(=O)O)NC(=O)C2(CCCC=CCCCOC(=O)N3CC[C@@](C(=O)N[C@@H](Cc4ccsc4)C(=O)N[C@@H](Cc4csc5ccccc45)C(=O)N[C@@H](CCC(N)=O)C(N)=O)(C3)NC(=O)[C@H](CC(C)C)NC(=O)[C@H](Cc3ccccc3)NC(=O)[C@H](C)NC(=O)[C@H](C)NC1=O)CCCC=CC[C@]1(CCCN1C(C)=O)C(=O)N[C@@H](CC(=O)O)C(=O)N[C@@H](CC(C)(C)C)C(=O)N2 (stereo partly drawn) [I-973, Ac-PL3-Asp-Npg-B5-Asp-EtGA-Ala-Ala-Phe-Leu-PyrS2-3Thi-BztA-Gln-NH2] | – | – | 10 µM (≈ 19.7 µg/mL) | 0.009 µM | 1.95 | – | 10.1 µM | – | – | – | IC50 [3, 7]: 1.38 µM
8 | CC(=O)N1CCC[C@]12CC=CCCCC1(CCCC=CCCCCCC[C@@](C)(C(=O)N[C@@H](Cc3ccccc3Cl)C(=O)N[C@@H](Cc3csc4ccccc34)C(=O)N[C@@H](CCC(N)=O)C(N)=O)NC(=O)[C@H](CC(C)C)NC(=O)[C@H](Cc3ccccc3)NC(=O)[C@H](C)NC(=O)[C@H](C)NC(=O)[C@H](CC(=O)O)NC(=O)[C@H](CC(=O)O)NC1=O)NC(=O)[C@H](CC(C)(C)C)NC(=O)[C@H](CC(=O)O)NC2=O (stereo partly drawn) [I-1095, Ac-PL3-Asp-Npg-B5-Asp-Asp-Ala-Ala-Phe-Leu-S8-2C1F-BztA-Gln-NH2] | > 20 µM | – | – | 0.015 µM | – | > 20 µM | – | – | – | 3.09 | –
9 | CC(=O)N1CCC[C@]12CC=CCCCC1(CCCC=CCCCOC(=O)N3CC[C@@](C(=O)N[C@@H](Cc4ccccc4C(F)(F)F)C(=O)N[C@@H](Cc4csc5ccccc45)C(=O)N[C@@H](CCC(N)=O)C(N)=O)(C3)NC(=O)[C@H](Cc3ccccc3)NC(=O)[C@H](Cc3ccccc3)NC(=O)[C@H](C)NC(=O)[C@H](C)NC(=O)[C@H](CC(=O)O)NC(=O)[C@H](CC(=O)O)NC1=O)NC(=O)[C@H](CC(C)(C)C)NC(=O)[C@H](CC(=O)O)NC2=O (stereo partly drawn) [I-1319, Ac-PL3-Asp-Npg-B5-Asp-Asp-Ala-Ala-Phe-Phe-PyrS2-2F3MeF-BztA-Gln-NH2] | 4.2 µM | – | 10 µM (≈ 20.1 µg/mL) | – | – | – | – | – | – | – | IC50 [3, 10]: 0.01 µM; IC50 ([5]; read-out: DLD1 4% Abs IC50, DLD1 reporter, 4%, absolute IC50): 2.1 µM
